In patent publication US10988456B2, “O-aminoheteroaryl alkynyl-containing compound, preparation method therefor, and use thereof” (SHANGHAI INSTITUTE OF MATERIA MEDICA, CHINESE ACADEMY OF …, priority 2017, dated 2021):

Key:
Ret (V804M) = target: T1, Ret (V804M) (Homo sapiens, UniProt P07949, V804M); assay: Inhibition of RET-related mutant enzyme activity (ELISA); assay type: biochemical; conditions: measured twice, Mean ± SD
T1 construct: purchased
Experimental: Enzyme reaction substrate Poly(Glu, Tyr)4:1 was diluted with potassium-free PBS (10 mM sodium phosphate buffer, 150 mM NaCl, pH 7.2-7.4) to 20 μg/mL. The enzyme label plate was coated with 125 μL/well. The reaction was conducted under 37° C. for 12-16 hours. After the liquid was removed from the wells, the plate was washed three times with 200 μL/well of T-PBS (PBS containing 0.1% Tween-20), each for 5 minutes. The enzyme plate was dried in 37° C. dryer for 1-2 hours.
50 μL ATP solution diluted with buffer (50 mM HEPES pH 7.4, 50 mM MgCl2, 0.5 mM MnCl2, 0.2 mM Na3VO4, 1 mM DTT) to a final concentration of 5 μM was added into each well. The compound was diluted with DMSO to a suitable concentration (1 μL/well) or the well contained the corresponding concentration of DMSO (negative control well) Then various kinase recombinant proteins diluted with 49 μL of reaction buffer was added to initiate the reaction. Each experiment required duplicate enzyme-free control well. The reaction was carried out for 1 hour on a 37° C. Shaker (100 rpm). […] The reaction was quenched with 2M H2SO4 (50 μL/well), and read at 490 nm using a tunable microplate reader SPECTRA MAX 190.
The inhibition ratio of the sample was determined by the following formula: […]
The IC50 values were obtained via four-parameter regression analysis using the software supplied with the microplate reader. […]

KDR = KDR (Homo sapiens, UniProt P35968); assay: Inhibition of receptor tyrosine kinase activity at molecular level (ELISA, Poly(Glu,Tyr)4:1 substrate phosphorylation); assay type: biochemical; conditions: 10 nM compound; average of two independent experiments
RET = RET (Homo sapiens, UniProt P07949); assay: as above; assay type: biochemical; conditions: for 10 nM inhibition ratio RET: 10 nM compound, average of two independent experiments
Procedure, shortened: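 Poly(Glu,Tyr)4:1-coated plates (20 μg/mL) were incubated with recombinant kinase, compound and 5 μM ATP (final) in HEPES pH 7.4 buffer with MgCl2/MnCl2/Na3VO4/DTT for 1 h at 37 °C. Phosphotyrosine was detected with PY99 and HRP anti-mouse IgG plus OPD at 490 nm. IC50 came from four-parameter regression.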

FGFR1 = FGFR1 (Homo sapiens, UniProt P11362); assay: as above; assay type: biochemical; conditions: 10 nM compound; average of two independent experiments
[1] = tested on: RET signaling pathway in TT and BaF3/CCDC6-RET cells; assay: Western blotting of RET signaling pathway activation in cells; assay type: cell-based; conditions: compounds 2 hours; P-RET, P-AKT, P-ErK
Experimental: Detecting the Effect of Compounds on the Activation of RET Signaling Pathway in TT and BaF3/CCDC6-RET Cells by Western Blotting
The cells were seeded into a 12-well plate (250,000/well). After incubation for 18-24 hours, the compounds were added to react for 2 hours, and then the cells were collected and firstly washed once with cold PBS (containing 1 mmol sodium vanadate); then 1×SDS gel loading buffer (50 mmol Tris-HCl (pH 6.8), 100 mmol DTT, 2% SDS, 10% glycerol, 1 mmol sodium vanadate, 0.1% bromophenol blue) was added to lyse cells. The cell lysate was heated in a boiling water bath for 10 minutes, and then centrifuged at 12,000 rpm for 10 minutes at 4° C.
The supernatant was taken for SDS-PAGE electrophoresis (Mini-PROTEAN 3 Cell, Bio-Rad, Hercules, Calif., USA). After electrophoresis, the proteins were transferred to a nitrocellulose membrane using a semi-dry electrotransfer system (Amersham Life Sciences, Arlington Heights, Ill., USA). The nitrocellulose membrane was placed in a blocking solution (5% skim milk powder diluted in TBS containing 1 mmol sodium vanadate) for 2 hours at room temperature, and then the membrane was placed and reacted with a primary antibody at 4° C. overnight. […] The membrane was placed in a secondary antibody solution and reacted for 1-2 hours at room temperature. After the membrane was washed three times as above, the membrane was stained using ECL (Picece, Rockford, Ill.) reagent was used for staining and then developed.

[2] = Pharmacokinetic experiment in rat (IV and PO, plasma LC-MS/MS)
Experimental: Ponatinib (AP24534) was administered intravenously (IV) and orally (PO) to SD rats. Blood samples were taken at different time points. LC-MS/MS was used to determine the concentration of compound in the plasma of rats after administration of the test compound, and the relevant pharmacokinetic parameters were calculated to examine oral bioavailability and pharmacokinetic properties of the compound in rats.
Compound HuFGFR267 was administered intravenously and orally to SD rats. Blood samples were taken at different time points. LC-MS/MS was used to determine the concentration of compound in the plasma of rats after administration of the test compound, and the relevant pharmacokinetic parameters were calculated to examine oral bioavailability and pharmacokinetic properties of the compound in rats.

[3] = tested on: human gastric cancer SNU-16 xenografts; assay: Growth of subcutaneous xenografts of human gastric cancer SNU-16 in nude mice (comparative compounds study); conditions: for Relative tumor volume RTV (mean ± SD): SNU-16, 30 mg/kg orally once a day; for Weight (g, mean ± SD): SNU-16 tumor-bearing mice, 30 mg/kg orally once a day

Chain of RET (P07949 29-1114): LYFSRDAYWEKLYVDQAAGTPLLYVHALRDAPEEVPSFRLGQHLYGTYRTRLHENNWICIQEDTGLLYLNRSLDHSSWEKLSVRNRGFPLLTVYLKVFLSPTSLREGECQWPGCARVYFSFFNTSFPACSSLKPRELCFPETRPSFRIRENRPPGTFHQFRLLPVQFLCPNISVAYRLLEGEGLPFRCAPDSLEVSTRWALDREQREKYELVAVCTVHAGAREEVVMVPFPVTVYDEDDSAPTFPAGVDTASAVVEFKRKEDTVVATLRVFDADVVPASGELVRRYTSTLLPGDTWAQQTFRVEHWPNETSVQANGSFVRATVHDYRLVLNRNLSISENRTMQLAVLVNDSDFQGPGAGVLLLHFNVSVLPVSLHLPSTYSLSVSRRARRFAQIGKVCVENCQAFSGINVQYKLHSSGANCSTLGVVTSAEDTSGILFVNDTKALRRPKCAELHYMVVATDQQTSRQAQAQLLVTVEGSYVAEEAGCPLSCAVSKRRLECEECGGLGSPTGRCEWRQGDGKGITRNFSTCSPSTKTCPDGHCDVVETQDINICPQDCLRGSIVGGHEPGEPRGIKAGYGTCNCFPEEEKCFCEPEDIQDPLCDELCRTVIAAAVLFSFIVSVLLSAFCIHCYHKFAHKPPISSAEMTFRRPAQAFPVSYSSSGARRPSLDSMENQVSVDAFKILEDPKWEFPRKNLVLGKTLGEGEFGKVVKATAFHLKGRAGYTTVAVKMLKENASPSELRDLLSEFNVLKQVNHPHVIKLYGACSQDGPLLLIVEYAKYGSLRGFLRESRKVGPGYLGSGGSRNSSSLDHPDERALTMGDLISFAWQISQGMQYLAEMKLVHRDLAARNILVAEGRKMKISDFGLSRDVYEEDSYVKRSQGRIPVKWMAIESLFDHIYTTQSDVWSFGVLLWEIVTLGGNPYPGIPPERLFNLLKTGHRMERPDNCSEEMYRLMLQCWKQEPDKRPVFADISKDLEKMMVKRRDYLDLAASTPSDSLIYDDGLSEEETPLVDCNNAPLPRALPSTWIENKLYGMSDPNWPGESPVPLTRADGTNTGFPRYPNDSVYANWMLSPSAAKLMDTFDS
Chain of KDR (P35968 20-1356): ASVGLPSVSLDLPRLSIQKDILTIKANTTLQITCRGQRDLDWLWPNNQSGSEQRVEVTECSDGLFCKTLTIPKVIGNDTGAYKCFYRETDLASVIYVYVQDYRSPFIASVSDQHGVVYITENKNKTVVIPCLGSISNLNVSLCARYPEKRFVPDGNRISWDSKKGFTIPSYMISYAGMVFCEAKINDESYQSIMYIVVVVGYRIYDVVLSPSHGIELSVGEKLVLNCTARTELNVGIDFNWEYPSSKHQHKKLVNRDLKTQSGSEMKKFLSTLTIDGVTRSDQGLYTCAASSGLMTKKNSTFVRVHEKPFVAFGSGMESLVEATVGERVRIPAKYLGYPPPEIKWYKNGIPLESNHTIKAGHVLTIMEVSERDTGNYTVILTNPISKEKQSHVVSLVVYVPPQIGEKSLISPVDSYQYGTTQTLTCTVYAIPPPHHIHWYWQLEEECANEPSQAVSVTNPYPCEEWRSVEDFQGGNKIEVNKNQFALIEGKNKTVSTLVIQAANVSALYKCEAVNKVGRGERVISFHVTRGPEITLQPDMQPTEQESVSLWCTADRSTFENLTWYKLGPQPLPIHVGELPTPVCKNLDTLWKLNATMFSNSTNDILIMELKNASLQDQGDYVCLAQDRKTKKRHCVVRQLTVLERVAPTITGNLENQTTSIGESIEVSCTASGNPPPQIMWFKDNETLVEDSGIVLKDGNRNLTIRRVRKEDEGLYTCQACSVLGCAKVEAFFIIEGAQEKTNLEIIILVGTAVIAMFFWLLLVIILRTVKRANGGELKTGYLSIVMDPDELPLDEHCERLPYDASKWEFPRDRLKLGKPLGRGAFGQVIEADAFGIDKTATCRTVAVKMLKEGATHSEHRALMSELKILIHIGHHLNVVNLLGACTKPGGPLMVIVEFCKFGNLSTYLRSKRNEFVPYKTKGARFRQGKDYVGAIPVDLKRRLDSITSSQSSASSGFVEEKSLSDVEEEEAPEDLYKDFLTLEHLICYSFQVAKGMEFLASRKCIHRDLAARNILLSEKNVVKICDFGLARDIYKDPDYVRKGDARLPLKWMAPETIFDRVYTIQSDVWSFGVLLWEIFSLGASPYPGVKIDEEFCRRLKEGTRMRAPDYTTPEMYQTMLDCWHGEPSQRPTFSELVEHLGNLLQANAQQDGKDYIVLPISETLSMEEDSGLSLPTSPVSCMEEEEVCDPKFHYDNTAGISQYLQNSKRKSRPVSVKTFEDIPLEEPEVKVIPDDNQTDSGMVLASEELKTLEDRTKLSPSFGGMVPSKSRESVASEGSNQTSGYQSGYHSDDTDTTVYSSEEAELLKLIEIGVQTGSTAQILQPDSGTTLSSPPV
Chain of FGFR1 (P11362 22-822): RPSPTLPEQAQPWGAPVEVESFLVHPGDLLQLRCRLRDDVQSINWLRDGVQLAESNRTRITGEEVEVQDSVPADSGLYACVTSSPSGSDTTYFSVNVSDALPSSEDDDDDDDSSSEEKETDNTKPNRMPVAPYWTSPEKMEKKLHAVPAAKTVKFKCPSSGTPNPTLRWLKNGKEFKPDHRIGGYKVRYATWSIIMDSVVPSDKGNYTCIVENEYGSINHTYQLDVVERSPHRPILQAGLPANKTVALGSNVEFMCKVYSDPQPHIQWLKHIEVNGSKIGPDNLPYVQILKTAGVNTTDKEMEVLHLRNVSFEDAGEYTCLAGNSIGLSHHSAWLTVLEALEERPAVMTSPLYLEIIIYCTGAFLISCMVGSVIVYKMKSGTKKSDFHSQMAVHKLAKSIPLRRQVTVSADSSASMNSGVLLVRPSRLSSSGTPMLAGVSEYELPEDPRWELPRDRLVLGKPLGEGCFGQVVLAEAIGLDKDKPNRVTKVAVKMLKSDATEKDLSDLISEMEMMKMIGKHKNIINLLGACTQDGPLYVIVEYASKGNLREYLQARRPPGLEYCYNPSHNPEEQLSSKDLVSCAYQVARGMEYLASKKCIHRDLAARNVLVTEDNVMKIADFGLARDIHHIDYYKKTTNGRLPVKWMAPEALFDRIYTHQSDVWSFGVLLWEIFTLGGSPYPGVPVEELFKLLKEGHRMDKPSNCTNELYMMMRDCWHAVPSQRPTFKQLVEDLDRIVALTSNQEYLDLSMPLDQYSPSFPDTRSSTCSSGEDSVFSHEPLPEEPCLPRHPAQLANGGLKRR
T1 sequence (P07949 29-1114 V804M): as the sequence (P07949 29-1114) above, with V776M counted along it

CN1CCN(Cc2ccc(NC(=O)c3cccc(C#Cc4cccnc4N)c3)cc2C(F)(F)F)CC1 [Example 6]
IC50 (Ret (V804M)): 17.9 ± 5.4 nM
10 nM inhibition ratio KDR (KDR): 35.2
10 nM inhibition ratio RET (RET): 57.7
IC50 (RET; measured twice, Mean ± SD): 6 ± 0.4 nM
10 nM inhibition ratio FGFR1 (FGFR1): 74.7
inhibition of RET phosphorylation and downstream signaling pathway (Western blot, FIG. 1) [1]: inhibited RET phosphorylation and the downstream signaling pathway

Cc1ccc(C(=O)Nc2ccc(CN3CCN(C)CC3)c(C(F)(F)F)c2)cc1C#Cc1cnc2cccnn12 [Ponatinib]
F ([2]; SD rats, PO (10 mg/kg) vs IV (2 mg/kg)): 24.4%
AUC0-t ([2]; SD, rat, plasma, iv, 2 mg/kg): 1410 ng·h/mL
Vd ([2]; SD, rat, plasma, iv, 2 mg/kg): 7.78 L/kg
clearance ([2]; SD, rat, plasma, iv, 2 mg/kg): 22.2 mL/min/kg
half-life ([2]; SD, rat, plasma, iv, 2 mg/kg): 4.24 h
AUC0-t ([2]; SD, rat, plasma, po, 10 mg/kg): 1600 ng·h/mL
Cmax ([2]; SD, rat, plasma, po, 10 mg/kg): 241 ng/mL
Tmax ([2]; SD, rat, plasma, po, 10 mg/kg): 2.33 h
half-life ([2]; SD, rat, plasma, po, 10 mg/kg): 8.29 h
10 nM inhibition ratio KDR (KDR): 85.3
10 nM inhibition ratio RET (RET): 87.5
10 nM inhibition ratio FGFR1 (FGFR1): 79.5
relative tumor proliferation rate T/C ([3]; SNU-16, 30 mg/kg orally once a day for 21 days, day 21): 36.20%
Relative tumor volume RTV (mean ± SD) ([3]; d0): 1.00 ± 0.00
Relative tumor volume RTV (mean ± SD) ([3]; d3): 1.46 ± 0.30
Relative tumor volume RTV (mean ± SD) ([3]; d7): 1.56 ± 0.52
Relative tumor volume RTV (mean ± SD) ([3]; d10): 1.56 ± 0.22
Relative tumor volume RTV (mean ± SD) ([3]; d14): 2.00 ± 0.38
Relative tumor volume RTV (mean ± SD) ([3]; d17): 1.94 ± 0.47
Relative tumor volume RTV (mean ± SD) ([3]; d21): 2.10 ± 0.34
Weight (g, mean ± SD) ([3]; d0): 23.6 ± 2.5 g
Weight (g, mean ± SD) ([3]; d3): 24.2 ± 2.9 g
Weight (g, mean ± SD) ([3]; d7): 23.5 ± 2.8 g
Weight (g, mean ± SD) ([3]; d10): 23.7 ± 2.9 g
Weight (g, mean ± SD) ([3]; d14): 24.5 ± 2.8 g
Weight (g, mean ± SD) ([3]; d17): 24.1 ± 2.6 g
Weight (g, mean ± SD) ([3]; d21): 24.6 ± 3.1 g
inhibition of RET phosphorylation and downstream signaling pathway (Western blot, FIG. 1) [1]: inhibited RET phosphorylation and the downstream signaling pathway
